Test results: article PMC6581572 (ChemMedChem, 2019)
pEC50, pIC50: −log10 of the molar value. Read-outs that look alike come from different tables or passages of the source.

Key:
IAV endonuclease = IAV endonuclease (Influenza A virus, UniProt C3W5S0); experiment: High throughput endonuclease assay; type: biochemical, influenza A/California/04/09 H1N1; conditions: for LE kcal/(mol·NHA): ligand efficiency, Tables 1 and 2
[1] = system: influenza A/Puerto Rico/08/1934 H1N1 expressing mCherry (PR8-mCherry); conditions: read-out: EC50, antiviral activity; cellular assay, previously reported; cited from earlier work
[2] = Chemical stability of the isolated compound; type: physicochemical; conditions: isolated tetrazole product, two synthetic routes

SMILES | LE kcal/(mol·NHA) (IAV endonuclease; LE = −RTln(IC50)/NHA) | pIC50 (IAV endonuclease) | also measured
N#Cc1ccc(-c2cc(O)c(=O)[nH]c2-c2ccc(F)cc2)cc1 [Compound 1] | 0.409 kcal/(mol·NHA) |  | 
O=c1[nH]c(-c2ccc(F)cc2)c(-c2ccc(-c3nnn[nH]3)cc2)cc1O [Compound 2] |  |  | pEC50 [1]: 4.96
N#Cc1ccc(-c2[nH]c(=O)c(O)cc2-c2ccc(F)cc2)cc1 [Compound 6] | 0.433 kcal/(mol·NHA) |  | 
O=c1[nH]c(-c2ccc(-c3nnn[nH]3)cc2)c(-c2ccc(F)cc2)cc1O [Compound 7] | 0.403 kcal/(mol·NHA) |  | 
N#Cc1ccc(-c2cc(O)c(=O)[nH]c2-c2cccc3ccccc23)cc1 [Compound 8, 4-(5-Hydroxy-2-(naphthalen-1-yl)-6-oxo-1,6-dihydropyridin-3-yl)benzonitrile] | 0.351 kcal/(mol·NHA) | 6.66 | 
O=c1[nH]c(-c2cccc3ccccc23)c(-c2ccc(-c3nnn[nH]3)cc2)cc1O [Compound 9, 5-(4-(1H-Tetrazol-5-yl)phenyl)-3-hydroxy-6-(naphthalen-1-yl)pyridin-2(1H)-one] | 0.354 kcal/(mol·NHA) |  | 
N#Cc1ccc(-c2cc(O)c(=O)[nH]c2-c2ccc3ccccc3c2)cc1 [Compound 10, 4-(5-Hydroxy-2-(naphthalen-2-yl)-6-oxo-1,6-dihydropyridin-3-yl)benzonitrile] | 0.330 kcal/(mol·NHA) |  | 
O=C(O)c1ccc(-c2cc(O)c(=O)[nH]c2-c2ccc(F)cc2)cc1 [Compound 11, 4-(2-(4-Fluorophenyl)-5-hydroxy-6-oxo-1,6-dihydropyridin-3-yl)benzoic acid] | 0.455 kcal/(mol·NHA) | 7.96 | 
COC(=O)c1ccc(-c2cc(O)c(=O)[nH]c2-c2ccc(F)cc2)cc1 [Compound 12, Methyl 4-(2-(4-fluorophenyl)-5-hydroxy-6-oxo-1,6-dihydropyridin-3-yl)benzoate] |  | 6.90 | 
Cn1nnnc1-c1ccc(-c2cc(O)c(=O)[nH]c2-c2ccc(F)cc2)cc1 [Compound 13, 6-(4-Fluorophenyl)-3-hydroxy-5-(4-(1-methyl-1H-tetrazol-5-yl)phenyl)pyridin-2(1H)-one] | 0.331 kcal/(mol·NHA) | 6.53 | 
Cn1nnc(-c2ccc(-c3cc(O)c(=O)[nH]c3-c3ccc(F)cc3)cc2)n1 [Compound 14, 6-(4-Fluorophenyl)-3-hydroxy-5-(4-(2-methyl-2H-tetrazol-5-yl)phenyl)pyridin-2(1H)-one] | 0.348 kcal/(mol·NHA) | 6.86 | 
NS(=O)(=O)c1ccc(-c2cc(O)c(=O)[nH]c2-c2ccc(F)cc2)cc1 [Compound 15, 4-(2-(4-Fluorophenyl)-5-hydroxy-6-oxo-1,6-dihydropyridin-3-yl)benzenesulfonamide] | 0.354 kcal/(mol·NHA) | 6.46 | 
CC(=O)NS(=O)(=O)c1ccc(-c2cc(O)c(=O)[nH]c2-c2ccc(F)cc2)cc1 [Compound 16, N-((4-(2-(4-Fluorophenyl)-5-hydroxy-6-oxo-1,6-dihydropyridin-3-yl)phenyl)sulfonyl)acetamide] | 0.335 kcal/(mol·NHA) | 6.84 | 
O=c1[nH]c(-c2ccc(F)cc2)c(-c2ccc(-c3cnn[nH]3)cc2)cc1O [Compound 17, 5-(4-(1H-1,2,3-Triazol-5-yl)phenyl)-6-(4-fluorophenyl)-3-hydroxypyridin-2(1H)-one] | 0.401 kcal/(mol·NHA) | 7.60 | 
N#Cc1ccc(-c2cc(O)c(=O)[nH]c2Cc2ccc(F)cc2)cc1 [Compound 18, 4-(2-(4-Fluorobenzyl)-5-hydroxy-6-oxo-1,6-dihydropyridin-3-yl)benzonitrile] | 0.360 kcal/(mol·NHA) | 6.29 | 
N#Cc1ccc(-c2cc(O)c(=O)[nH]c2Cc2cccc3ccccc23)cc1 [Compound 19, 4-(5-Hydroxy-2-(naphthalen-1-ylmethyl)-6-oxo-1,6-dihydropyridin-3-yl)benzonitrile] | 0.353 kcal/(mol·NHA) | 6.94 | 
N#Cc1ccc(-c2cc(O)c(=O)[nH]c2Cc2ccc3ccccc3c2)cc1 [Compound 20, 4-(5-Hydroxy-2-(naphthalen-2-ylmethyl)-6-oxo-1,6-dihydropyridin-3-yl)benzonitrile] | 0.314 kcal/(mol·NHA) | 6.18 | 
O=c1[nH]c(Cc2ccc(F)cc2)c(-c2ccc(-c3nnn[nH]3)cc2)cc1O [Compound 21, 5-(4-(1H-Tetrazol-5-yl)phenyl)-6-(4-fluorobenzyl)-3-hydroxypyridin-2(1H)-one] | 0.385 kcal/(mol·NHA) | 7.59 | 
O=c1[nH]c(Cc2cccc3ccccc23)c(-c2ccc(-c3nnn[nH]3)cc2)cc1O [Compound 22, 5-(4-(1H-Tetrazol-5-yl)phenyl)-3-hydroxy-6-(naphthalen-1-ylmethyl)pyridin-2(1H)-one] | 0.358 kcal/(mol·NHA) |  | 
O=c1[nH]c(Cc2ccc3ccccc3c2)c(-c2ccc(-c3nnn[nH]3)cc2)cc1O [Compound 23, 5-(4-(1H-Tetrazol-5-yl)phenyl)-3-hydroxy-6-(naphthalen-2-ylmethyl)pyridin-2(1H)-one] | 0.328 kcal/(mol·NHA) |  | 
O=C(O)c1ccc(-c2[nH]c(=O)c(O)cc2-c2ccc(F)cc2)cc1 [Compound 24, 4-(3-(4-Fluorophenyl)-5-hydroxy-6-oxo-1,6-dihydropyridin-2-yl)benzoic acid] | 0.415 kcal/(mol·NHA) | 7.26 | 
N#Cc1ccc(-c2[nH]c(=O)c(O)cc2Cc2ccc(F)cc2)cc1 [Compound 25, 4-(3-(4-Fluorobenzyl)-5-hydroxy-6-oxo-1,6-dihydropyridin-2-yl)benzonitrile] | 0.361 kcal/(mol·NHA) | 6.32 | 
N#Cc1ccc(-c2[nH]c(=O)c(O)cc2Cc2cccc3ccccc23)cc1 [Compound 26, 4-(5-Hydroxy-3-(naphthalen-1-ylmethyl)-6-oxo-1,6-dihydropyridin-2-yl)benzonitrile] | 0.343 kcal/(mol·NHA) | 6.76 | 
N#Cc1ccc(-c2[nH]c(=O)c(O)cc2Cc2ccc3ccccc3c2)cc1 [Compound 27, 4-(5-Hydroxy-3-(naphthalen-2-ylmethyl)-6-oxo-1,6-dihydropyridin-2-yl)benzonitrile] | 0.335 kcal/(mol·NHA) | 6.60 | 
O=c1[nH]c(-c2ccc(-c3nnn[nH]3)cc2)c(Cc2ccc(F)cc2)cc1O [Compound 28, 6-(4-(1H-Tetrazol-5-yl)phenyl)-5-(4-fluorobenzyl)-3-hydroxypyridin-2(1H)-one] | 0.369 kcal/(mol·NHA) | 7.27 | 
O=c1[nH]c(-c2ccc(-c3nnn[nH]3)cc2)c(Cc2cccc3ccccc23)cc1O [Compound 29, 6-(4-(1H-Tetrazol-5-yl)phenyl)-3-hydroxy-5-(naphthalen-1-ylmethyl)pyridin-2(1H)-one] | 0.362 kcal/(mol·NHA) |  | 
O=c1[nH]c(-c2ccc(-c3nnn[nH]3)cc2)c(Cc2ccc3ccccc3c2)cc1O [Compound 30, 6-(4-(1H-Tetrazol-5-yl)phenyl)-3-hydroxy-5-(naphthalen-2-ylmethyl)pyridin-2(1H)-one] | 0.324 kcal/(mol·NHA) |  | 
O=C(O[C@@H]1Cc2c(O)cc(O)cc2O[C@@H]1c1cc(O)c(O)c(O)c1)c1cc(O)c(O)c(O)c1 [epigallocatechin gallate, reference compound] |  |  | ligand efficiency of reference inhibitor (IAV endonuclease; LE = −RTln(IC50)/NHA): 0.249 kcal/(mol·NHA); pIC50 (IAV endonuclease; read-out: IC50 of reference inhibitor in this assay, green tea catechin): 6.00
O=c1[nH]c(-c2ccc3ccccc3c2)c(-c2ccc(-c3nn[nH]n3)cc2)cc1O [tetrazole derivative of 10, 6-(2-naphthyl)-5-(p-(5-tetrazoyl)phenyl)-3-hydroxypyridin-2(1H)-one] |  |  | Stability of the isolated product [2]: unexpectedly unstable
